Data published in patent US20050065348A1, “Pyridin-2-yl-methylamine derivatives for treating opioid dependence” (priority 2001, published 2005).
Where a name gives a salt, the structure may show the parent alone.

Experiments:
5-HT1A receptor = molecular target: T1, 5-HT1A receptor (Rattus norvegicus, UniProt P19327); experiment: Affinity for the 5-HT1A receptor (3H-8-OH-DPAT displacement); format: binding; settings: Tissue: cerebral cortex of rat, average of at least 3 experiments
T1 construct: Tissue: cerebral cortex of rat; from tissue; host or cells: rat cerebral cortex
T1 sequence (P19327 1-422): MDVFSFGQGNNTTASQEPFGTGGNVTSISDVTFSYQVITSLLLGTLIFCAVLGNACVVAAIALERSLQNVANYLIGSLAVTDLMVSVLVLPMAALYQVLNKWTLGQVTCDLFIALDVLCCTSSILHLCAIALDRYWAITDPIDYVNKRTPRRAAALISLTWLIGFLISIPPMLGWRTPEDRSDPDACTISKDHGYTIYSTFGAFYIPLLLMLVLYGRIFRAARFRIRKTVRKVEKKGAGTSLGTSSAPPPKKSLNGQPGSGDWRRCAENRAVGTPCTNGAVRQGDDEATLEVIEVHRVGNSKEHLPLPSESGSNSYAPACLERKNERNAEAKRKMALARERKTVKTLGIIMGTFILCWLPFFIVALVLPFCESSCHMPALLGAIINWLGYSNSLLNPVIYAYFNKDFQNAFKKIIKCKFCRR
Description: Measurement of the affinity of compound F and reference products for the 5-HT1A receptor
Study of the bond with the 5-HT1A receptor was carried out according to a standard method (Naunyn-Schmiedeberg's Arch. Pharmaco. 1991, 343, 106). The inhibition constants (Ki) of the products according to the invention were estimated from displacement experiments using the version 4 RADLIG non-linear regression programme of EBDA (Equilibrium Binding Data Analysis) (Biosoft, Cambridge, UK, Mc Pherson, 1985). The dissociation constants of the radioactive ligands used in the calculations are 0.31 nmole for ^3H-8-OH-DPAT. The values of pKi (−logKi) are provided under the form of average±SEM of at least 3 experiments.

[1] = test system: morphine withdrawal syndrome (hyperalgesia); experiment: Effects on morphine dependence: naloxone-precipitated withdrawal hyperalgesia (Randall and Selitto nociceptive thresholds); format: in vivo; settings: rat, s.c. osmotic mini-pumps 2 weeks
Description: The products are administered by means of osmotic mini-pumps (model 2ML2; flow rate 5 μl/hr: Alza Corporation, Palo Alto, USA) implanted subcutaneously on the first day of the experiment and extracted two weeks later. The pump is set in place through a transversal incision made in the skin of the dorsal face of the rat, the liberation orifice being directed towards the head.
The compound F is administered at 0.63 mg/rat/day (5.25 mg/ml) in solution in distilled water. […] The pumps implanted in the control animals release 0.12 ml of 0.9% NaCl (saline)/rat/day; the doses referring to the weight of the non salified compound.
The study consists of two phases: a phase of chronic treatment lasting 2 weeks, and a withdrawal phase lasting 1 week.
On the experiment's first day the rats were given implants of two osmotic mini-pumps.
After two weeks of chronic treatment, the withdrawal phase began. After taking base measurements on day 14, all the animals received a sub-cutaneous injection of naloxone at 0.63 mg/kg. Next, 30 minutes, 1 hr, 2 hr, 4 hr, and 8 hr after the injection, another series of measurements was taken. The pumps were extracted after the last measurement at 8 hr after the naloxone injection. A series of measurements was also taken daily 24 hr to 4 days after the naloxone injection. During this withdrawal period, the nociceptive thresholds were measured using the Randall and Selitto method (Arch. Int. Pharmacodyn. 1957, CXI, 409) in which increasing pressure is applied to the back paw until the vocalisation threshold is reached. The results are expressed in grams and a 750 g limit is imposed.
In order to evaluate the nociceptive thresholds, the areas under the curves (AUCs) were determined and processed by a variance analysis (ANOVA). The post-hoc comparisons (i.e. those following the variance analysis when the latter is significant) were made using the Student-Newman-Keuls (SNK) test for comparing groups with each other. A statistically significant effect was defined at p<0.05.

| Structure (SMILES) | Ki (5-HT1A receptor; read-out: pKi site 5-HT1A (converted)) | Effect on hyperalgesia / morphine withdrawal syndrome (AUC of nociceptive thresholds) ([1]; co-treatment morphine 5 mg/rat/day + compound 2.5 mg/rat/day, naloxone 0.63 mg/kg s.c., SNK p<0.05 vs control) | pKi site 5-HT1A (5-HT1A receptor) | AUC of nociceptive thresholds 30 minutes to 4 days after naloxone, versus control animals ([1]; co-treatment morphine 5 mg/rat/day + compound 0.63 mg/rat/day, naloxone 0.63 mg/kg s.c., SNK p>0.05) | AUC of nociceptive thresholds 30 minutes to 4 days after naloxone, compound alone versus control animals ([1]; saline + compound 0.63 mg/rat/day, no morphine, p>0.05) |
| --- | --- | --- | --- | --- | --- |
| Clc1cnn(CCCCN2CCN(c3ncccn3)CC2)c1 [lesopitron, reference compound] | 55 nM | did not have any detectable effect on the hyperalgesia |  |  |  |
| Cc1ccc(CNCC2(F)CCN(C(=O)c3ccc(F)c(Cl)c3)CC2)nc1 [compound F, (3-Chloro-4-fluorophenyl)-(4-fluoro-4-{[(5-methyl-pyridin-2-yl-methyl)-amino]-methyl}-piperidin-1-yl)-methadone fumarate] |  |  | 9.07 | statistically comparable with those obtained from the control animals | does not induce an effect on its own |
